Consider 6 molecules from patent US20090325952A1, “PYRAZOLO[3,4-B]PYRIDINE COMPOUNDS, AND THEIR USE AS PDE4 INHIBITORS” (Glaxo Group Limited, priority 2006, published 2009).

Counter-ions that a name gives are not always drawn.

In the first assay the target is PDE4D (human recombinant) (Homo sapiens, UniProt Q08499). The experiment in a line: Inhibition of PDE4D activity (FP assay). Format: biochemical. To be noted: FP assay or generally similar assay; ±about 0.5 or more. From the text: Human recombinant PDE4D (HSPDE4D3A) is disclosed in P. A. Baecker et al., “Isolation of a cDNA encoding a human rolipram-sensitive cyclic AMP phoshodiesterase (PDE IVD)”, Gene, 1994, 138, 253-256.
Chain of PDE4D (human recombinant) (Q08499 1-673 isoform Q08499-2): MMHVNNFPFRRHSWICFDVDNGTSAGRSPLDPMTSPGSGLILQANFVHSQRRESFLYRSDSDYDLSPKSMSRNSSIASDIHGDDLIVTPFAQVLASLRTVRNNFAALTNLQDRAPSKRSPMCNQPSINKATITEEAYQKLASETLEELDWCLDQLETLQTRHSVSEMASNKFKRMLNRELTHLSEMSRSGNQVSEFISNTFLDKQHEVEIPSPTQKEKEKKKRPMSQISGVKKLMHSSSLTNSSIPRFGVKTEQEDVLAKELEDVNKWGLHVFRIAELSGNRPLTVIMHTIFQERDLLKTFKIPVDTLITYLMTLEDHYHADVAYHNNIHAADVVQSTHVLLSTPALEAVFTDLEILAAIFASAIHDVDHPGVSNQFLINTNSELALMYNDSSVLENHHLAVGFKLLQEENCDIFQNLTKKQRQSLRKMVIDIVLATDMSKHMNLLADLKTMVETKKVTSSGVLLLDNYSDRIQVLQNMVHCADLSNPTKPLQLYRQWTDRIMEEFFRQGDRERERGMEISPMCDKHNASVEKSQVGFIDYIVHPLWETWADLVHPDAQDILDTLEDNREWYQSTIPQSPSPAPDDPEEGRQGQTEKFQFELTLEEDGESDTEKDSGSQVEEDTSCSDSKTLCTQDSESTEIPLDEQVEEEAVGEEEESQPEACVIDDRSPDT
The ability of compounds to inhibit catalytic activity at PDE4B (human recombinant) or PDE4D (human recombinant) can optionally be determined by IMAP Fluorescence Polarisation (FP) assay (IMAP Explorer kit, available from Molecular Devices Corporation, Sunnydale, Calif., USA; Molecular Devices code: R8062) in 384-well format.
The IMAP FP assay is able to measure PDE activity in an homogenous, non-radioactive assay format. The FP assay uses the ability of immobilised trivalent metal cations, coated onto nanoparticles (tiny beads), to bind the phosphate group of Fl-AMP that is produced on the hydrolysis of fluorescein-labelled (Fl) cyclic adenosine mono-phosphate (Fl-cAMP) to the non-cyclic Fl-AMP form. […] Binding of Fl-AMP product to the beads (coated with the immobilised trivalent cations) slows the rotation of the bound Fl-AMP and leads to an increase in the fluorescence polarisation ratio of parallel to perpendicular light. Inhibition of the PDE reduces/inhibits this signal increase.
Test compounds (small volume, e.g. ca. 0.5 to 1 microlitres (ul), suitably ca. 0.5 ul, of solution in DMSO) are preincubated at ambient temperature (room temperature, e.g. 19-23° C.) in black 384-well microtitre plates (supplier: NUNC, code 262260) with PDE enzyme in 10 mM Tris-HCl buffer pH 7.2, 10 mM MgCl2, 0.1% (w/v) bovine serum albumin, and 0.05% NaN3 for 10-30 minutes. The enzyme level is set by experimentation so that reaction is linear throughout the incubation. Fluorescein adenosine 3′,5′-cyclic phosphate (from Molecular Devices Corporation, Molecular Devices code: R7091) is added to give about 40 nM final concentration (final assay volume usually ca. 20-40 ul, suitably ca. 20 ul). Plates are mixed on an orbital shaker for 10 seconds and incubated at ambient temperature for 40 minutes. IMAP binding reagent (as described above, from Molecular Devices Corporation, Molecular Devices code: R7207) is added (60 ul of a 1 in 400 dilution in binding buffer of the kit stock solution) to terminate the assay. Plates are allowed to stand at ambient temperature for 1 hour. The Fluorescence Polarisation (FP) ratio of parallel to perpendicular light is measured using an Analyst™ plate reader (from Molecular Devices Corporation). For inhibition curves, 10 concentrations (e.g. 1.5 nM-30 uM) of each compound are assayed. Curves are analysed using ActivityBase and XLfit (ID Business Solutions Limited, 2 Ocean Court, Surrey Research Park, Guildford, Surrey GU2 7QB, United Kingdom). Results are expressed as pIC50 values.
The PDE4D pIC50 values of some compounds or salts of the invention are as follows, as measured using an FP assay or a generally similar assay: • the salt of Example 1A1: PDE4D pIC50=about 10.7 (about 0.5 or more) (n=8). • the compound of Example 1B: PDE4D pIC50=about 10.4 (about 0.5 or more) (n=2). • the salt of Example 9: PDE4D pIC50>about 11.0 (± about 0.5 or more) (n=1). • the salt of Example 19: PDE4D pIC50=about 10.7 (±about 0.5 or more) (n=2). • the salt of Example 26: PDE4D pIC50=about 9.4 (±about 0.5 or more) (n=2). • the compound of Example 23A: PDE4D pIC50=about 10.5 (± about 0.5 or more) (n=1). Emesis: Some known PDE4 inhibitors can cause emesis and/or nausea to greater or lesser extents, especially after systemic exposure e.g. after oral administration (e.g. see Z. Huang et al., Current Opinion in Chemical Biology, 2001, 5: 432-438, see especially pages 433-434 and refs cited therein). Therefore, it would be preferable, but not essential, if a PDE4 inhibitory compound or salt of the invention were to cause only limited or manageable emetic side-effects, e.g. after inhaled or parenteral or external-topical administration. […]
For the molecule `CCc1nc2c(cnn2CC)c(NC2CCN(C(N)=O)CC2)c1CNC(=O)c1ccc(NC(=O)CCCCCCCN(C)CCO)cc1.O=C(O)C(F)(F)F` [Example 9, 4-({1,6-diethyl-5-[({[4-({8-[(2-hydroxyethyl)(methyl)amino]octanoyl}amino)phenyl]carbonyl}amino)methyl]-1H-pyrazolo[3,4-b]pyridin-4-yl}amino)-1-piperidinecarboxamide trifluoroacetate (salt)], the “PDE4D pIC50” value was above 11.0.

Still in this assay, the particulars now being: FP assay or generally similar assay; ±about 0.5 or more; read-out: PDE4D pIC50 (converted).
For `CCc1nc2c(cnn2CC)c(NC2CCOCC2)c1CNC(=O)c1ccc(CCCCOCCCCN(C)CCO)cc1` [Example 19, formate salt of N-{[1,6-diethyl-4-(tetrahydro-2H-pyran-4-ylamino)-1H-pyrazolo[3,4-b]pyridin-5-yl]methyl}-4-[4-({4-[(2-hydroxyethyl)(methyl)amino]butyl}oxy)butyl]benzamide], the IC50 is around 0.02 nM.

Turning to `CCc1nc2c(cnn2CC)c(NC2CCOCC2)c1CNC(=O)c1ccc(NC(=O)CCCCCCCN(C)CCO)cc1` [Example 1A1, N-{[1,6-Diethyl-4-(tetrahydro-2H-pyran-4-ylamino)-1H-pyrazolo[3,4-b]pyridin-5-yl]methyl}-4-({8-[(2-hydroxyethyl)(methyl)amino]octanoyl}amino)benzamide dihydrochloride], the IC50 is around 0.02 nM. The same measure, in the same setting: as for `CCc1nc2c(cnn2CC)c(NC2CCOCC2)c1CNC(=O)c1ccc(NC(=O)CCCCCCCN(C)CCO)cc1` [Example 1B, N-{[1,6-diethyl-4-(tetrahydro-2H-pyran-4-ylamino)-1H-pyrazolo[3,4-b]pyridin-5-yl]methyl}-4-({8-[(2-hydroxyethyl)(methyl)amino]octanoyl}amino)benzamide], the figure is around 0.0398 nM. As to `CCn1ncc2c(NC3CCOCC3)c(CNC(=O)c3ccc(NC(=O)CCCCCCCN(C)CCO)cc3)cnc21` [Example 26, Formate salt of N-{[1-ethyl-4-(tetrahydro-2H-pyran-4-ylamino)-1H-pyrazolo[3,4-b]pyridin-5-yl]methyl}-4-({8-[(2-hydroxyethyl)(methyl)amino]octanoyl}amino)benzamide], the IC50 is around 0.398 nM. As to `CCc1nc2c(cnn2CC)c(NC2CCN(C(N)=O)CC2)c1CNC(=O)c1ccc(CCCCOCCCCN2CCOCC2)cc1` [Example 23A, 4-({1,6-diethyl-5-[({[4-(4-{[4-(4-morpholinyl)butyl]oxy}butyl)phenyl]carbonyl}amino)methyl]-1H-pyrazolo[3,4-b]pyridin-4-yl}amino)-1-piperidinecarboxamide], the IC50 was around 0.0316 nM.
